Laboratory results: patent US20250275954A1, “USE OF KYNURENIC ACID RESISTING HYPERURICEMIA AND STRUCTURAL ANALOG THEREOF IN PREPARATION OF XOD INHIBITOR” (JIMEI UNIVERSITY, priority 2023, published 2025)
Entries after “also recorded” stand apart in the source; their conditions may differ.

Columns and labels:
[1] = biological target: XOD (xanthine oxidase) (Homo sapiens, UniProt P47989); assay: In vitro XOD enzyme activity inhibition (xanthine substrate, uric acid measured at 290 nm); type: biochemical; details: for inhibition at 1000 µM: compound concentration 1 mM (FIG. 11), read-out: xanthine oxidase inhibitory activity at 1 mM; for IC50: in vitro, inhibitor co-reacted with XOD 10 min, xanthine substrate, 290 nm, read-out: XOI IC50 (XOD inhibitory activity)
XOD (xanthine oxidase), sequence (P47989 whole entry, species assumed): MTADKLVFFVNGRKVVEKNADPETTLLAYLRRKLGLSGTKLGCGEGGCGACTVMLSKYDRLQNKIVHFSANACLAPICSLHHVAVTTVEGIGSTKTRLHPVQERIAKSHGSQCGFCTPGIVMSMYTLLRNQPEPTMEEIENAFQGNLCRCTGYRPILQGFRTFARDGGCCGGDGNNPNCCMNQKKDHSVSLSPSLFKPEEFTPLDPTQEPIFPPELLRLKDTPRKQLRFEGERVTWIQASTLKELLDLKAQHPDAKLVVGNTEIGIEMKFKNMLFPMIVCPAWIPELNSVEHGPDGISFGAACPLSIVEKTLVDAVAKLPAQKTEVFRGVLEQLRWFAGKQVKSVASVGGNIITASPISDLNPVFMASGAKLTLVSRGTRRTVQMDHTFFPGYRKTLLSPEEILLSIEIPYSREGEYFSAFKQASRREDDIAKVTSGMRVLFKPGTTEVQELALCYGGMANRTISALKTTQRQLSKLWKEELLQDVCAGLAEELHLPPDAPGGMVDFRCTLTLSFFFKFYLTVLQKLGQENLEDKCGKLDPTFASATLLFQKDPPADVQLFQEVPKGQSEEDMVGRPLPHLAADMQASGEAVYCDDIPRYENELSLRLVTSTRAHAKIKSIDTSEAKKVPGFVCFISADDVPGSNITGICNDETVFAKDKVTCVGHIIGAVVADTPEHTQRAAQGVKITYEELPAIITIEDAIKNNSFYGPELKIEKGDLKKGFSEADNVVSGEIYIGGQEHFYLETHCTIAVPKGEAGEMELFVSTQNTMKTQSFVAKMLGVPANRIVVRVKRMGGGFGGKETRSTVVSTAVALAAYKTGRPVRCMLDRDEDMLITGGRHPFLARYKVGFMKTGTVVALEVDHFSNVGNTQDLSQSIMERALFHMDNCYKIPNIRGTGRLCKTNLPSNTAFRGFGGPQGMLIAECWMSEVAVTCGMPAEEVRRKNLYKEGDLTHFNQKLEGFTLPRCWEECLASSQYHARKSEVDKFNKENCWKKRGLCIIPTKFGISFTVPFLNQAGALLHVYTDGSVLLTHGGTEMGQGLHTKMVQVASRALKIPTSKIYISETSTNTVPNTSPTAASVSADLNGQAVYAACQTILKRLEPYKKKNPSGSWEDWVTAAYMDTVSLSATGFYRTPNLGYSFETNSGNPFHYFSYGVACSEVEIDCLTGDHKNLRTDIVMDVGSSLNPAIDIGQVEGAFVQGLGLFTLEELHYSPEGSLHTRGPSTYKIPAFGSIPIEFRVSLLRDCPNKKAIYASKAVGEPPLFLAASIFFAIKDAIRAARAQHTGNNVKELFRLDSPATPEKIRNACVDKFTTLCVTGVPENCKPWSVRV
Procedure: The inhibitory effect of quinoline structural analogs on XOD was evaluated by co-reacting an inhibitor with XOD for 10 min, adding a certain concentration of a reaction substrate xanthine, and measuring the amount of uric acid produced at 290 nm.

[2] = tested on: hyperuricemic mice; assay: Serum uric acid in hyperuricemic mice (UA test kit); type: in vivo, Kunming mice; details: for serum uric acid level: hyperuricemic mice, day 21, vs model group (p<0.01), KA 7, 35, 70 mM/kg/day, allopurinol 35 mM/kg/day, gavage
Procedure: (§1) The normal control group received daily gavage of an equal amount of CMC-Na solution and injection of an equal amount of saline, and the remaining groups received daily gavage of 500 mg/kg hypoxanthine (HX) and intraperitoneal injection of 300 mg/kg potassium oxazinate (PO). […] Oral gavage was continued for 21 days. Data were analyzed for correlation and significance by using SPSS 23.0 software, and differences between the groups were compared by using one-way ANOVA, *p<0.05 indicates a significant difference, **p<0.01 indicates a very significant difference, and the data were expressed as X±SD.
At the end of the experiment on day 21, the mice in each group of Example 1 were subjected to blood collection from eyeballs of living bodies after being fasted for solids and liquids for 12 h. After sufficient blood samples were collected, they were allowed to stand at room temperature for 30 min and then centrifuged (3500 rpm, 10 min). A supernatant was taken and stored at −20° C. for standby application.
Serum uric acid levels in target mice were detected by using a uric acid (UA) test kit. The serum uric acid level is an important evaluation index of drug improvement in hyperuricemia.

[3] = biological target: T1, XOD (Mus musculus, UniProt Q00519); assay: Serum XOD enzyme activity in hyperuricemic mice (colorimetric kit); type: in vivo, Kunming mice; details: day 21, vs model group (p<0.01), KA 7, 35, 70 mM/kg/day, allopurinol 35 mM/kg/day
T1 construct: from tissue; host or cells: liver homogenate of male Kunming mice (hyperuricemia model)
T1 sequence (Q00519 whole entry): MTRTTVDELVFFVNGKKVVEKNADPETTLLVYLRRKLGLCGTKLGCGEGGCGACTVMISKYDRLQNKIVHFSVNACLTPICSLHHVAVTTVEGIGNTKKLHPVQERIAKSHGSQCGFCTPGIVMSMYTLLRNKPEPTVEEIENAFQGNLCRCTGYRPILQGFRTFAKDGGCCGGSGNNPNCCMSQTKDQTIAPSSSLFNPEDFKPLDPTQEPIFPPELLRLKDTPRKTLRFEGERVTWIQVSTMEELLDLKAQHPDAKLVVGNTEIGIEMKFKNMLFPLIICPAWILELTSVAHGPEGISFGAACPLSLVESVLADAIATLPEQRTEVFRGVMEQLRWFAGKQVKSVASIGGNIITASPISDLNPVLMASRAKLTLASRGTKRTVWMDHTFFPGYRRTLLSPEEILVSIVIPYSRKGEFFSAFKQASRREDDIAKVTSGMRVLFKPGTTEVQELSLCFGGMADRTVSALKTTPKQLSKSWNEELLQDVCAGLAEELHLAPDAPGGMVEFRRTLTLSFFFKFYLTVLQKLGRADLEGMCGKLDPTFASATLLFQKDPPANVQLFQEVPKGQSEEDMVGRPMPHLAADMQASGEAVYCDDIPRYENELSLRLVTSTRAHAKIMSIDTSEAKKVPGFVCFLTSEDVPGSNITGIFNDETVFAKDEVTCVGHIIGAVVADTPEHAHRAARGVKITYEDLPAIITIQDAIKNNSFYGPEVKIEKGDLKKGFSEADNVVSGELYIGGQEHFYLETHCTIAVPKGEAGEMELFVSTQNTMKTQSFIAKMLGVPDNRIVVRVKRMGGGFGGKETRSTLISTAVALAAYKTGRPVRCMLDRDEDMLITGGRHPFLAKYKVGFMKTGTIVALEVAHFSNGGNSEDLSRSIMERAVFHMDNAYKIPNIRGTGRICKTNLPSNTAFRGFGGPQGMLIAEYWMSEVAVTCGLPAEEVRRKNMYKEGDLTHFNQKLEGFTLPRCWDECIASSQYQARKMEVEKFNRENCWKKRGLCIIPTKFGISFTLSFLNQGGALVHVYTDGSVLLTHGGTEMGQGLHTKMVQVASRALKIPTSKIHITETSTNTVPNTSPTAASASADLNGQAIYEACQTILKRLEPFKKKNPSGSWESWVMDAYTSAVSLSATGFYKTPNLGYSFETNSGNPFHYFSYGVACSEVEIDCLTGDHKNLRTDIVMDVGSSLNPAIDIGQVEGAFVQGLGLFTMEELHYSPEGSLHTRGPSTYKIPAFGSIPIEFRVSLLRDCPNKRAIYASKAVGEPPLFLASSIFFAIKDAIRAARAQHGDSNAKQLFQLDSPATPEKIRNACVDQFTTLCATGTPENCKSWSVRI
Procedure: as §1
After sufficient blood samples were collected, they were allowed to stand at room temperature for 30 min and then centrifuged (3500 rpm, 10 min). A supernatant was taken and stored at −20° C. for standby application.

[4] = biological target: T1, XOD; assay: Hepatic XOD enzyme activity in hyperuricemic mice; type: in vivo, Kunming mice; details: liver homogenate, day 21, vs model group (p<0.01); KA 7, 35, 70 mM/kg/day
Source text: as §1, with “36 SPF-grade male Kunming mice with relatively consistent posture and good health were randomly divided into a normal control group, a model group, a positive control group, a kynurenic acid low dose group (KA-L), a kynurenic acid medium dose group (KA-M) and a kynurenic acid high dose group (KA-H), with six experimental mice in each group. The” for “The”
Serum samples of Example 2 were taken, and the XOD enzyme activity levels in the mouse serum samples were determined by using a xanthine oxidase (XOD) assay kit (a colorimetric method), and experimental operations and data calculation were performed in strict accordance with the kit instructions. […]

[5] = tested on: hyperuricemic mice; assay: Serum creatinine (CRE) in hyperuricemic mice; type: in vivo, Kunming mice; details: day 21, vs model group (p<0.01), KA 7, 35, 70 mM/kg/day
Source text: as §1, with “36 SPF-grade male Kunming mice with relatively consistent posture and good health were randomly divided into a normal control group, a model group, a positive control group, a kynurenic acid low dose group (KA-L), a kynurenic acid medium dose group (KA-M) and a kynurenic acid high dose group (KA-H), with six experimental mice in each group. The” for “The”, “X±SD. […]” for “X±SD.”
Serum samples of Example 2 were taken and the CRE content of the mouse serum samples was measured by using a creatinine (CRE) assay kit (sarcosine oxidation), and experimental operations and data calculation were performed in strict accordance with the kit instructions.

[6] = tested on: adenosine deaminase (ADA); assay: Serum adenosine deaminase activity (ADA) in hyperuricemic mice (peroxidase method kit); type: in vivo, Kunming mice
Source text: as §1, with “36 SPF-grade male Kunming mice with relatively consistent posture and good health were randomly divided into a normal control group, a model group, a positive control group, a kynurenic acid low dose group (KA-L), a kynurenic acid medium dose group (KA-M) and a kynurenic acid high dose group (KA-H), with six experimental mice in each group. The” for “The”
At the end of the experiment on day 21, the mice in each group of Example 1 were subjected to blood collection from eyeballs of living bodies after being fasted for solids and liquids for 12 h. […]
Serum samples of Example 2 were taken, and ADA enzyme activity levels in the mouse serum samples were determined by using an adenosine deaminase activity (ADA) assay kit (a peroxidase method).

[7] = Body weight of hyperuricemic mice; type: in vivo, Kunming mice; details: hyperuricemic mice (HX + PO), daily gavage KA 7, 35 or 70 mM/kg, 21 days
Procedure: SPF-grade male Kunming mice (8 weeks old), 35±5 g, were purchased from Changzhou Cavens Laboratory Animal Co., Ltd. Animal quality was tested by Suzhou Xishan Biotechnology Co., Ltd.
Experimental mice were housed in a clean animal feeding room, and feeding and experimental operations were performed according to the standards of the Animal Experimental Center, and the animal feeding room and an operating workbench were cleaned and disinfected daily. All experimental mice were housed in a comfortable environment (temperature: 25±2° C., humidity: 40%-70%, 12 hours of day and night cycle) with good ventilation and daily supplementation of feed and drinking water.
36 SPF-grade male Kunming mice with relatively consistent posture and good health were randomly divided into a normal control group, a model group, a positive control group, a kynurenic acid low dose group (KA-L), a kynurenic acid medium dose group (KA-M) and a kynurenic acid high dose group (KA-H), with six experimental mice in each group. […] Data were analyzed for correlation and significance by using SPSS 23.0 software, and differences between the groups were compared by using one-way ANOVA, *p<0.05 indicates a significant difference, **p<0.01 indicates a very significant difference, and the data were expressed as X±SD. […]

[8] = tested on: hyperuricemic mice; assay: Blood urea nitrogen (BUN) in hyperuricemic mice; type: in vivo, Kunming mice
Source text: 36 SPF-grade male Kunming mice with relatively consistent posture and good health were randomly divided into a normal control group, a model group, a positive control group, a kynurenic acid low dose group (KA-L), a kynurenic acid medium dose group (KA-M) and a kynurenic acid high dose group (KA-H), with six experimental mice in each group. The normal control group received daily gavage of an equal amount of CMC-Na solution and injection of an equal amount of saline, and the remaining groups received daily gavage of 500 mg/kg hypoxanthine (HX) and intraperitoneal injection of 300 mg/kg potassium oxazinate (PO). […] Oral gavage was continued for 21 days. Data were analyzed for correlation and significance by using SPSS 23.0 software, and differences between the groups were compared by using one-way ANOVA, *p<0.05 indicates a significant difference, **p<0.01 indicates a very significant difference, and the data were expressed as X±SD. […]
Serum samples of Example 2 were taken and the blood urea nitrogen (BUN) content in the mouse serum samples was measured by using a blood urea nitrogen (BUN) assay kit (a urease method), and experimental operations and data calculation were performed in strict accordance with the kit instructions.

[9] = tested on: hyperuricemic mice; assay: Hepatic uric acid in hyperuricemic mice; type: in vivo, Kunming mice; details: liver homogenate, day 21 (p<0.01); KA 7, 35, 70 mM/kg/day; allopurinol 35 mM/kg/day
Source text: 36 SPF-grade male Kunming mice with relatively consistent posture and good health were randomly divided into a normal control group, a model group, a positive control group, a kynurenic acid low dose group (KA-L), a kynurenic acid medium dose group (KA-M) and a kynurenic acid high dose group (KA-H), with six experimental mice in each group. The normal control group received daily gavage of an equal amount of CMC-Na solution and injection of an equal amount of saline, and the remaining groups received daily gavage of 500 mg/kg hypoxanthine (HX) and intraperitoneal injection of 300 mg/kg potassium oxazinate (PO). […] Oral gavage was continued for 21 days. Data were analyzed for correlation and significance by using SPSS 23.0 software, and differences between the groups were compared by using one-way ANOVA, *p<0.05 indicates a significant difference, **p<0.01 indicates a very significant difference, and the data were expressed as X±SD.
Serum uric acid levels in target mice were detected by using a uric acid (UA) test kit. […]
On day 21, the mice in each group of Example 1 were quickly sacrificed by cervical dislocation after being fasted for solids and liquids for 12 h and livers were collected for weighing and subpackaging. […] Uric acid levels in the mouse liver homogenate samples were determined by using the method described in Example 2. […]

[10] = hyperuricemic mice, day 21, vs model group (p<0.01), KA 7, 35, 70 mM/kg/day

| inhibition at 1000 µM [1] [%] | IC50 [1] [µM] | SMILES | serum uric acid level [2] | hepatic uric acid level [9] | further results |
| --- | --- | --- | --- | --- | --- |
| > 50 | 500 ± 130 | O=C(O)c1cnc2ccc(O)cc2c1 [Compound 5, 6-Hydroxyquinoline-3-carboxylic acid] | – | – | – |
| – | 5650 ± 100 | CCOC(=O)c1cc(O)c2ccccc2n1 [Compound 7, Ethyl 4-hydroxyquinoline-2-carboxylate] | – | – | – |
| – | 1610 ± 70 | O=C(O)c1cc(O)nc2ccccc12 [Compound 11, 2-Hydroxyquinoline-4-carboxylic acid] | – | – | – |
| > 50 | 970 ± 50 | O=C(O)c1nc2ccccc2cc1O [Compound 13, 3-Hydroxyquinoline-2-carboxylic acid] | – | – | – |
| – | 1990 ± 260 | O=C(O)c1cc(O)c2ccccc2n1 [KA, Kynurenic acid] | significantly reduce | reduce hepatic UA levels in a concentration-dependent manner; also recorded: reduce hepatic uric acid levels in a concentration-dependent manner; also recorded: gradient decline | serum uric acid level, comparison among KA doses ([2]; KA-H, 70 mM/kg/day, day 21): most pronounced; serum XOD enzyme activity [3]: reduce serum XOD enzyme activity in hyperuricemic mice to varying degrees; hepatic XOD enzyme activity [4]: effectively inhibit; also recorded: decreased significantly; serum creatinine (CRE) level [5]: significantly reduces; also recorded: significantly decrease; serum ADA enzyme activity, comparison among KA doses ([6]; KA-H, 70 mM/kg/day, day 21): the most significant; serum ADA enzyme activity [6, 10]: effectively reduce; also recorded: significantly reduced; growth status and body weight [7]: no significant effect; also recorded: no significant impact; also recorded: did not affect; BUN level compared with the positive control group ([8]; KA-M and KA-H (35 and 70 mM/kg/day) vs allopurinol 35 mM/kg/day (p<0.01)): reduce BUN levels in the mice more significantly; blood urea nitrogen (BUN) level [8, 10]: significantly reduces; also recorded: significantly decrease |
| – | – | Oc1ncnc2[nH]ncc12 [allopurinol, reference compound] | significantly inhibited the increase | significantly reduced | xanthine oxidase inhibitory activity at various concentrations ([1]; FIG. 10A to 10R): concentration-dependent |
